Ends that are not written are not given here.

In one assay the test system is HCV pseudoparticles. The assay can be described thus: HCV pseudoparticle (HCVpp) entry assay in Huh7 hepatoma cells, luciferase readout. The conditions noted are these: peptide library screen, first screened at 100 ug/ml; cell entry inhibition vs uninhibited control. The format is cell-based, hepatitis C virus. An outline of the steps: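 Pseudoparticles carrying HCV E1/E2 on an HIV luciferase backbone were produced in 293T cells; peptide was pre-incubated 1 h at 37 °C with Huh7 cells, then virus added and luciferase read after 72 h. Dose-response used 10-point 3-fold titration from 100 ug/ml; envelope-less particles controlled non-specific entry.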

The subject of assay [1] is amphotropic murine leukemia virus. Kind of assay: AMLV pseudotyped virus entry counter-screen, same infection protocol. Particulars: peptide library screen; cell entry inhibition vs uninhibited control. The format is cell-based. An outline of the steps: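 Huh7 hepatoma cells pre-incubated with peptide 1 h at 37 °C, then infected with AMLV pseudotyped virus and cultured 72 h at 37 °C, 5% CO2 before luciferase read-out. Peptides screened at 100 ug/ml, then 10-point 3-fold titrations from 100 ug/ml.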
(In general: The purpose of a counterscreen is to sort out artefacts and off-target activity.)

In the case of “R-H-E-T-V-Q-D-C-N-C-S-I-Y-P-G-H [SEQ ID NO: 18]”, the HCVpp % inh in the assay on HCV pseudoparticles was found to be 5%. Moreover, in assay [1], the AMLVpp % inh turned out to be 17%.
In the same order, the values of “R-I-P-Q-A-V-V-D-M-V-A-G-A-H-W-G [SEQ ID NO: 24]” are 25% and −2%.
In the same order, the values of “S-C-S-P-I-D-A-F-A-Q-G-W-G-P-I-T [SEQ ID NO: 41]” are −11% and 25%.
Taken in the same sequence, the figures for “S-S-D-Q-R-P-Y-C-W-H-Y-A-P-R-P-C [SEQ ID NO: 44]” were 14% and 15%.
On to “S-T-T-E-W-Q-V-L-P-C-S-F-T-T-L-P [SEQ ID NO: 71]”, for which, in the assay with HCV pseudoparticles, the HCVpp % inh is given as 44%. Also, the AMLVpp % inh in assay [1] stood at 18%.
Taken in the same sequence, the figures for “S-V-F-L-V-A-Q-L-F-T-F-S-P-R-R-H [SEQ ID NO: 16]” were 3% and −148%.
“S-W-G-E-N-E-T-D-V-L-L-L-N-N-T-R [SEQ ID NO: 51]”: the HCVpp % inh in the assay on HCV pseudoparticles turned out to be 23%. The AMLVpp % inh in assay [1] amounted to 34%.
In the same order, the values of “T-C-G-G-P-P-C-N-I-G-G-I-C-N-K-T [SEQ ID NO: 56]” are 53% and 22%.
For the substance “T-G-G-T-N-A-K-N-T-L-G-I-T-S-L-F [SEQ ID NO: 31]”, the HCVpp % inh with HCV pseudoparticles worked out at 41%. The AMLVpp % inh in assay [1] is given as −2%.
In the same order, the values of “T-N-G-S-W-H-I-N-R-T-A-L-N-C-N-D (TNGSWHINRTALNCND; HCV peptide) [SEQ ID NO: 35]” are 29% and 30%.
Taken in the same sequence, the figures for “T-R-G-E-R-C-N-L-E-D-R-D-R-S-E-L [SEQ ID NO: 68]” were 13% and −7%.
In the same order, the values of “T-R-P-P-Q-G-N-W-F-G-C-T-W-M-N-S [SEQ ID NO: 53]” are 59% and −42%.
As for “T-T-T-I-R-R-H-V-D-L-L-V-G-A-A-A [SEQ ID NO: 12]”, in the assay with HCV pseudoparticles, the HCVpp % inh worked out at 31%. Also, in assay [1], the AMLVpp % inh was −5%.
Regarding “V-C-A-C-L-W-M-M-L-L-I-A-Q-A-E-A [SEQ ID NO: 80]”, the HCVpp % inh in the assay with HCV pseudoparticles was determined as 16%. Besides, in assay [1], the AMLVpp % inh amounted to 7%.
On to “V-D-G-G-T-Y-V-T-G-G-T-M-A-K-N-T [SEQ ID NO: 30]”, for which, in the assay on HCV pseudoparticles, the HCVpp % inh came to 2%. Also, the AMLVpp % inh in assay [1] is reported as −9%.
In the same order, the values of “V-D-L-L-V-G-A-A-A-L-C-S-A-M-Y-V [SEQ ID NO: 13]” are 39% and −13%.
Regarding “V-G-G-V-E-H-R-L-E-A-A-C-N-W-T-R (VGGVEHRLEAACNWTR; HCV peptide) [SEQ ID NO: 66]”, the HCVpp % inh with HCV pseudoparticles was found to be 22%. In assay [1], the AMLVpp % inh was 34%.
Turning to “V-H-K-F-N-S-S-G-C-P-E-R-M-A-S-C [SEQ ID NO: 39]”, the HCVpp % inh in the assay with HCV pseudoparticles is recorded as −11%. For the same substance, the AMLVpp % inh in assay [1] is reported as −15%.
Turning to “V-M-L-L-F-A-G-V-D-G-G-T-Y-V-T-G [SEQ ID NO: 29]”, the HCVpp % inh in the assay on HCV pseudoparticles is recorded as −22%. Besides, the AMLVpp % inh in assay [1] stood at 11%.
For “V-P-C-V-R-E-N-N-S-S-R-C-W-V-A-L [SEQ ID NO: 8]”, the HCVpp % inh with HCV pseudoparticles is recorded as −22%. The AMLVpp % inh in assay [1] came to 14%.
In the same order, the values of “V-V-D-V-Q-Y-L-Y-G-I-G-S-A-V-V-S [SEQ ID NO: 75]” are 39% and 44%.
In the same order, the values of “V-V-V-G-T-T-D-R-F-G-V-P-T-Y-S-W [SEQ ID NO: 49]” are 37% and −22%.
In the same order, the values of “V-Y-E-A-A-D-M-I-M-H-T-P-G-C-V-P [SEQ ID NO: 6]” are −13% and 10%.
For the substance “W-F-G-C-T-W-M-N-S-T-G-F-T-K-T-C (WFGCTWMNSTGFTKTC; HCV peptide) [SEQ ID NO: 54]”, in the assay with HCV pseudoparticles, the HCVpp % inh came to 39%. For the same substance, the AMLVpp % inh in assay [1] is −15%.
Turning to “W-G-V-L-A-G-L-A-Y-Y-S-M-V-G-N-W [SEQ ID NO: 26]”, in the assay with HCV pseudoparticles, the HCVpp % inh is 50%. In addition, in assay [1], the AMLVpp % inh is on record as 27%.
“Y-C-F-T-P-S-P-V-V-V-G-T-T-D-R-F (YCFTPSPVVVGTTDRF; not fully specified (C-terminus); printed as Y-C-F-T-P-S-P-V-V-V-G-T-T-D-R-F) [SEQ ID NO: 48]”: in the assay on HCV pseudoparticles, the HCVpp % inh is listed as 6%. For the same substance, in assay [1], the AMLVpp % inh was found to be 21%.
Take “Y-E-V-R-N-V-S-G-V-Y-H-V-T-N-D-C [SEQ ID NO: 3]”: the HCVpp % inh in the assay on HCV pseudoparticles turned out to be 35%. In addition, the AMLVpp % inh in assay [1] is given as 18%.
Regarding “Y-G-I-G-S-A-V-V-S-F-A-I-K-W-E-Y [SEQ ID NO: 76]”, the HCVpp % inh in the assay with HCV pseudoparticles is 7%. Further, in assay [1], the AMLVpp % inh was determined as 24%.
Taken in the same sequence, the figures for “Y-V-G-D-L-C-G-S-V-F-L-V-A-Q-L-F [SEQ ID NO: 15]” were 16% and −31%.

(Values after patent US20100119483A1, “PEPTIDE VIRAL ENTRY INHIBITORS” (Schering Corporation, priority 2004, published 2010).)
